What all share (format): cell-based
The test system of assay [1] is LL29 cells (primary human fibroblasts derived from IPF patients), α-smooth muscle actin. In words: Inhibition of the fibrotic process: αSMA staining in TGF-β1 treated primary human fibroblasts from IPF patients (LL29 cells). The following applies: Fibroblast; for EC50: 96 h, LL29 cells, TGF-β1 20 ng/mL, 4 days, % αSMA positive cells; for inhibition at 10 µM: read-out: percent inhibition at 10 μM. The protocol:
Representative compounds were screened using primary human fibroblasts (derived from IPF patients) treated with TGF-β1 to determine their ability to inhibit the fibrotic process.
LL29 cells are plated at 1,500 cells/well in 80 μL/well F12 medium supplemented with 1% Fetal Bovine Serum. […] Wells treated with TGF-β1 and containing DMSO were used as controls. […] Following incubation for 4 days, SYTOX green nucleic acid stain (Life Technologies [Thermo Fisher Scientific]) was added to the wells at a final concentration of 1 μM and incubated at room temperature for 30 min.

The test system of assay [2] is IL-6 in THP-1 cells. In words: IL-6 inhibition in LPS-stimulated THP-1 human monocyte cells (HTRF). The following applies: for EC50: IL-6 inhibition, LPS-stimulated THP-1 cells, HTRF, 10-point dose-response starting from 10 μM. The protocol:
Compound Screening: THP-1 cells were cultured in basal media with 1% FBS for 24 hours before the start of the assay. […] THP-1 cells were plated at 5000 cells/well in the 384-well plates and incubated at 37° C. for 2 h. 500 ng/mL of LPS was added after 2 hours and cells were incubated for another 22 hours at 37° C. Plates were spun in a centrifuge for 1 minute at […] and a mixture of anti-IL6 XL665, and anti-IL6 Cryptate diluted in reconstitution buffer (Cisbio Inc.) was added to each well. Following incubation for 3 hrs at room temperature, Homogeneous Time-Resolved Fluorescence (HTRF) was measured using the Envision (Perkin Elmer) at 665 nm and […]. The ratio of fluorescence at 665 nm to 620 nm was used as a readout for IL6 quantification. All samples were processed in duplicate. Readings were normalized to DMSO treated cells and normalized activities were utilized for EC50 calculations using the dose-response log (inhibitor) vs. response variable slope (four parameters) nonlinear regression feature available in GraphPad Prism 5.0 (or Dotmatics).
In general terms: Time-resolved FRET reads energy transfer from a long-lived donor to a nearby acceptor.

For assay [3], the system named is Wnt activity (Sp5-Luc reporter, TCF/LEF binding sites) in SW480 colon carcinoma cells. In words: Wnt activity screening assay: Sp5-Luc reporter gene assay in SW480 cells. The following applies: Homo sapiens; Sp5-Luc reporter, SW480 cells, overnight incubation. The source says:
The screening assay for Wnt activity is described as follows. Reporter cell lines can be generated by stably transducing cancer cell lines (e.g., colon cancer) or primary cells (e.g., IEC-6 intestinal cells) with a lentiviral construct that includes a Wnt-responsive promoter driving expression of the firefly luciferase gene.
SW480 colon carcinoma cells were transduced with a lentiviral vector expressing luciferase with a human Sp5 promoter consisting of a sequence of eight TCF/LEF binding sites. SW480 cells stably expressing the Sp5-Luc reporter gene and a hygromycin resistance gene were selected by treatment with 150 μg/mL of hygromycin for 7 days. These stably transduced SW480 cells were expanded in cell culture and used for all further screening activities. […] For Sp5-Luc reporter gene assays, the cells were plated at 4,000 cells/well in 384-well plates with medium containing 1% fetal bovine serum and incubated overnight at 37° C. and 5% CO2. Following incubation, 20 μl of BrightGlo luminescence reagent (Promega) was added to each well of the 384-well assay plates. The plates were placed on an orbital shaker for 2 min and then luminescence was quantified using the Envision (Perkin Elmer) plate reader. Readings were normalized to DMSO only treated cells, and normalized activities were utilized for EC50 calculations using the dose-response log (inhibitor) vs. response variable slope (four parameters) nonlinear regression feature available in GraphPad Prism 5.0 (or Dotmatics).
(Reporter assays use an easily measured gene product as a stand-in for the process of interest.)

The test system of assay [4] is SW480 colon cancer cells. The assay is described as follows: Cell viability assay (CellTiter-Blue) in SW480 colon cancer cells. The following applies: Homo sapiens; for EC50: 96 h, SW480 cell viability, four days, CellTiter-Blue; for inhibition at 10 µM: SW480, read-out: percent inhibition at 10 μM. The protocol: Representative compounds were screened using the following assay procedure to assess the effect on cell viability as described below.
Approximately 2×10^3 SW480 colon cancer cells were seeded into each well and allowed to incubate in the presence or absence of compound for four days at 37° C./5% CO2. Eight replicates of DMSO-treated cells served as controls and cells treated with compound were performed in duplicate.
After incubation, 20 μL of CellTiter-Blue (Promega) was added to each well allowed to incubate for approximately 3 hours. This reagent was a buffered solution which contains resazurin, metabolically active cells were able to reduce rezarurin (blue) into resorufin (pink) which was highly fluorescent. This measured fluorescence was used as a readout for cell viability.
In general terms: Resazurin is reduced to fluorescent resorufin, in cell work by metabolically active cells.

The test system of assay [5] is primary human mesenchymal stem cells (hMSCs). The assay is described as follows: Induction of chondrogenesis in primary human mesenchymal stem cells (chondrogenic nodules, Rhodamine B / Nile Red). The following applies: 6 days; for EC50: concentration required to induce 50% levels of chondrogenesis vs TGF-β3, read-out: Conc (nM) of 50% TGF-β3 activity; for Emax: relative to TGF-β3 (10 ng/mL) positive control, read-out: Max. Activity as % TGF-β3 activity. The text has this: Representative compounds were screened using primary human mesenchymal stem cells (hMSCs) to determine their ability to induce chondrogenesis (process by which cartilage is developed).
Human Mesenchymal Stem Cell Culture: Primary human mesenchymal stem cells (hMSCs) were purchased from Lonza (Walkersville, Md.) and expanded in Mesenchymal Stem Cell Growth Media (Lonza). Cells between passage 3 and 6 were used for the experiments.
To image chondrogenic nodules, the cells were fixed using 4% formaldehyde (Electron Microscopy Sciences), and stained with 2 μg/mL Rhodamine B (Sigma-Aldrich) and 20 μM Nile Red (Sigma-Aldrich) [Johnson K., et. al, A Stem Cell-Based Approach to Cartilage Repair, Science, (2012). […] Number of nodules in each well was normalized to the average of 3 DMSO treated wells on the same plate using Excel (Microsoft Inc.). The normalized averages (fold change over DMSO) of 3 replicate wells for each compound concentration were calculated. Due to solubility limitations of some of the compounds, curve fitting was incomplete leading to inaccurate EC50 determinations.
Using TGF-β3 as a positive control, the concentration of representative compounds required to induce 50% levels of chondrogenesis is reported. In addition, the maximum activity of each compound and the respective dose that each compound reached maximum chondrogenesis activity is reported.

Molecules are shown by their SMILES. Where only a bound is given, the exact number is not on record here.

For the compound `CS(=O)(=O)NCc1cc(F)cc(-c2nccc3[nH]c(-c4n[nH]c5ncc(-c6cncc(NC(=O)C7CCC7)c6)cc45)cc23)c1` [Compound 497, N-(5-(3-(4-(3-Fluoro-5-(methylsulfonamidomethyl)phenyl)-1H-pyrrolo[3,2-c]pyridin-2-yl)-1H-pyrazolo[3,4-b]pyridin-5-yl)pyridin-3-yl)cyclobutanecarboxamide], the EC50 in assay [1] was over 10 µM; in assay [2], 0.124 µM; in assay [3], 3.64 µM; in assay [4] it was over 10 µM; in assay [5], 300 nM. Moreover, the results for the inhibition at 10 µM in assay [1] and in assay [4] were 0% and 48%, respectively. Moreover, in assay [5], the Emax amounted to 52%.
For the compound `O=C(Nc1cncc(-c2cnc3[nH]nc(-c4cc5c(-c6cccs6)nccc5[nH]4)c3c2)c1)C1CCC1` [Compound 357, N-(5-(3-(4-(Thiophen-2-yl)-1H-pyrrolo[3,2-c]pyridin-2-yl)-1H-pyrazolo[3,4-b]pyridin-5-yl)pyridin-3-yl)cyclobutanecarboxamide], the EC50 came to 0.609 µM in assay [1]; 0.179 µM in assay [2]; 0.473 µM in assay [3]; 0.489 µM in assay [4]; 100 nM in assay [5]. Further, in assay [5], the Emax came out at 82%.
On to `CCC(=O)Nc1cncc(-c2cnc3[nH]nc(-c4cc5c(-c6cccc(F)c6)nccc5[nH]4)c3c2)c1` [Compound 1, N-(5-(3-(4-(3-Fluorophenyl)-1H-pyrrolo[3,2-c]pyridin-2-yl)-1H-pyrazolo[3,4-b]pyridin-5-yl)pyridin-3-yl)propionamide], for which the EC50 in assay [1] was 0.606 µM; in assay [2], 0.242 µM; in assay [3], 0.272 µM; in assay [4], 0.63 µM; in assay [5] it was 300 nM. Further, in assay [5], the Emax is 114%.
Consider `CC(C)CC(=O)Nc1cncc(-c2cnc3[nH]nc(-c4cc5c(N6CCN(C)CC6)nccc5[nH]4)c3c2)c1` [Compound 226, 3-Methyl-N-(5-(3-(4-(4-methylpiperazin-1-yl)-1H-pyrrolo[3,2-c]pyridin-2-yl)-1H-pyrazolo[3,4-b]pyridin-5-yl)pyridin-3-yl)butanamide], for which the EC50 is over 10 µM in assay [1], 0.141 µM in assay [2], 3.41 µM in assay [3] and over 10 µM in assay [4]. For the same compound, the figures for the inhibition at 10 µM in assay [1] and in assay [4] were 0% and 57.6%, respectively. In addition, the Emax in assay [5] was determined as 99%.
Consider `CS(=O)(=O)NCc1cc(F)cc(-c2nccc3[nH]c(-c4n[nH]c5ncc(-c6cncc(NC(=O)C7CCCCC7)c6)cc45)cc23)c1` [Compound 499, N-(5-(3-(4-(3-Fluoro-5-(methylsulfonamidomethyl)phenyl)-1H-pyrrolo[3,2-c]pyridin-2-yl)-1H-pyrazolo[3,4-b]pyridin-5-yl)pyridin-3-yl)cyclohexane carboxamide], for which the EC50 in assay [1] is over 10 µM; in assay [2], 3.75 µM; in assay [3], 3.63 µM; in assay [4] it was over 10 µM. Also, the inhibition at 10 µM worked out at 23.6% in assay [1] and 35.5% in assay [4]. In addition, the Emax in assay [5] was found to be 120%.
As for `O=C(Nc1cncc(-c2cnc3[nH]nc(-c4cc5cnccc5[nH]4)c3c2)c1)C1CCCCC1` [Compound 275, N-(5-(3-(1H-Pyrrolo[3,2-c]pyridin-2-yl)-1H-pyrazolo[3,4-b]pyridin-5-yl)pyridin-3-yl)cyclohexanecarboxamide], the EC50 is 1.38 µM in assay [1], 0.447 µM in assay [2], 1.4 µM in assay [3] and 1.52 µM in assay [4]. Besides, the Emax in assay [5] was found to be 9%.
For `CC(C)Nc1cncc(-c2cnc3[nH]nc(-c4cc5c(-c6cc(F)cc(CNS(C)(=O)=O)c6)nccc5[nH]4)c3c2)c1` [Compound 488, N-(3-Fluoro-5-(2-(5-(5-(isopropylamino)pyridin-3-yl)-1H-pyrazolo[3,4-b]pyridin-3-yl)-1H-pyrrolo[3,2-c]pyridin-4-yl)benzyl)methanesulfonamide], the EC50 in assay [1] is 0.86 µM; in assay [2], over 10 µM; in assay [3], 0.486 µM; in assay [4], 1.34 µM; in assay [5] it was 100 nM. Moreover, in assay [2] (THP-1, read-out: percentage in parentheses beside EC50 >10), the inhibition at 10 µM worked out at 54.6%. Besides, in assay [5], the Emax amounted to 66%.
As for `Nc1cncc(-c2cnc3[nH]nc(-c4cc5c(-c6ccccc6F)nccc5[nH]4)c3c2)c1` [Compound 59, 5-(3-(4-(2-Fluorophenyl)-1H-pyrrolo[3,2-c]pyridin-2-yl)-1H-pyrazolo[3,4-b]pyridin-5-yl)pyridin-3-amine], the EC50 in assay [1] was found to be 2.28 µM; in assay [2] it was 0.198 µM; in assay [3], 0.197 µM; in assay [4] it was 0.762 µM; in assay [5], 30 nM. Further, in assay [5], the Emax was determined as 86%.
With `O=C(Nc1cncc(-c2cnc3[nH]nc(-c4cc5c(-c6ccccc6F)nccc5[nH]4)c3c2)c1)C1CCCC1` [Compound 78, N-(5-(3-(4-(2-Fluorophenyl)-1H-pyrrolo[3,2-c]pyridin-2-yl)-1H-pyrazolo[3,4-b]pyridin-5-yl)pyridin-3-yl)cyclopentanecarboxamide], the EC50 in assay [1] was over 10 µM; in assay [2] it was 0.505 µM; in assay [3], 0.96 µM; in assay [4], 0.651 µM. For the same compound, the inhibition at 10 µM in assay [1] is 12.7%. The Emax in assay [5] came to 51%.
Regarding `Fc1ccc(-c2nccc3[nH]c(-c4n[nH]c5ncc(-c6cncc(CN7CCCC7)c6)cc45)cc23)cc1` [Compound 42, 3-(4-(4-Fluorophenyl)-1H-pyrrolo[3,2-c]pyridin-2-yl)-5-(5-(pyrrolidin-1-ylmethyl)pyridin-3-yl)-1H-pyrazolo[3,4-b]pyridine], the EC50 was determined as 0.72 µM in assay [1]; 3.99 µM in assay [2]; 1.57 µM in assay [3]; 0.535 µM in assay [4]; 10 nM in assay [5]. Further, in assay [5], the Emax stood at 105%.
With `CCC(=O)Nc1cncc(-c2cnc3[nH]nc(-c4cc5cnccc5[nH]4)c3c2)c1` [Compound 253, N-(5-(3-(1H-Pyrrolo[3,2-c]pyridin-2-yl)-1H-pyrazolo[3,4-b]pyridin-5-yl)pyridin-3-yl)propionamide], the EC50 is 3.71 µM in assay [1], 1 µM in assay [2], 0.96 µM in assay [3] and over 10 µM in assay [4]. Also, in assay [4], the inhibition at 10 µM stood at 50.3%. For the same compound, the Emax in assay [5] was determined as 17%.

The record behind these values is patent publication US10226448B2, “3-(1H-pyrrolo[3,2-C]pyridin-2-yl)-1H-pyrazolo[3,4-B]pyridines and therapeutic uses thereof” (Samumed, LLC, priority 2015, dated 2019).
